Measurements taken from the NIST ThermoML archive (doi:10.1021/je060271a).

Conditions: 343.15 K, Liquid, Vibrating tube method

CCCCCCC(=O)OCC(COC(=O)CCCCCC)(COC(=O)CCCCCC)COC(=O)CCCCCC [pentaerythritol tetraheptanoate]
Conditions	mass density [kg/m3]
198.3 kPa	940.8
199.4 kPa	940.6
200.6 kPa	940.7
201.5 kPa	940.8
202.5 kPa	940.8
203.4 kPa	940.7
204.1 kPa	940.7
205.3 kPa	940.7
206 kPa	940.7
206.9 kPa	940.9
207.7 kPa	940.8
208.6 kPa	940.7
210 kPa	940.7
211 kPa	940.6
211.7 kPa	940.7
212.8 kPa	940.9
213.6 kPa	940.7
214.8 kPa	940.7
215.9 kPa	940.7
217.1 kPa	940.8
218 kPa	940.8
219 kPa	940.7
220.2 kPa	940.8
222.7 kPa	940.7
224.1 kPa	940.8
225.1 kPa	940.7
226.1 kPa	940.7
227 kPa	940.8
228.6 kPa	940.8
229.8 kPa	940.8
231 kPa	940.7
232.2 kPa	940.7
233.4 kPa	940.6
234.5 kPa	940.7
236.2 kPa	940.7
237.9 kPa	940.8
239.3 kPa	940.7
241.1 kPa	940.7
242 kPa	940.7
243.9 kPa	940.6
244.9 kPa	940.7
246.3 kPa	940.8
248 kPa	940.6
250 kPa	940.7
251 kPa	940.7
252.9 kPa	940.8
254.6 kPa	940.7
255.8 kPa	940.8
257.9 kPa	940.7
259.5 kPa	940.8
260.5 kPa	940.8
262.3 kPa	940.8
263.7 kPa	940.7
265.9 kPa	940.8
268 kPa	940.8
269.6 kPa	940.6
271.8 kPa	940.8
273.9 kPa	940.8
276.2 kPa	940.7
277.7 kPa	940.7
279.5 kPa	940.8
281.6 kPa	940.7
284.2 kPa	940.8
287.1 kPa	940.8
288.7 kPa	940.8
291.3 kPa	940.8
293.5 kPa	940.9
295.8 kPa	940.7
297.9 kPa	940.8
302.9 kPa	940.9
305.2 kPa	940.8
308.3 kPa	940.8
310.8 kPa	940.8
314.1 kPa	940.9
316.5 kPa	940.9
319.1 kPa	940.8
321.4 kPa	940.8
324.7 kPa	940.8
327.3 kPa	940.7
330.2 kPa	940.7
333.5 kPa	940.9
336 kPa	940.7
340 kPa	940.7
343.3 kPa	940.9
346.2 kPa	940.8
349.4 kPa	940.8
353.2 kPa	941
356.5 kPa	940.7
359.8 kPa	940.9
364.3 kPa	940.9
367.4 kPa	940.8
371.8 kPa	940.8
375.3 kPa	940.8
378.9 kPa	940.8
382.9 kPa	941
387.8 kPa	940.9
391.6 kPa	940.9
395.9 kPa	940.9
400.5 kPa	940.9
405 kPa	940.9
410.2 kPa	941
414.7 kPa	941
419.2 kPa	940.9
423.8 kPa	940.9
429.5 kPa	940.8
434.5 kPa	940.9
440.6 kPa	940.9
445.7 kPa	940.9
451.2 kPa	941
457.5 kPa	941
463.2 kPa	940.9
468.9 kPa	940.8
